# Data reported in patent publication US20070054908A1, “Novel pharmaceutical compositions and methods for treating tumors, including drug-resistant tumors” (priority 2005, published 2007).
# Marks after values point to notes of the source that are not given here.
# Key:
# PC-3 (p53, del) = experiment: MTT cytotoxicity assay, PC-3; format: cell-based; conditions: Homo sapiens, 96 hr
# Description: (§1) To evaluate the cytotoxic activity of the two compounds, human prostate cancer cells (PC-3, LNCaP, and DU145) were plated into 96-well plate and incubated for 96 hr with various concentrations of desired drugs. During the last 2 hr, MTT (3-(4,5-dimethylthiazol-2-yl)-2,5-diphenyltetrazolium bromide) was added and the dark-blue formazan formed in live cells was dissolved in dimethyl sulfoxide and the absorbance was measured with a FLUOstar Optima microplate reader (BMG LABTECH Inc., Durham, N.C.) at 570 nm. The IC50 was defined as the concentration of a drug that inhibited cell growth by 50% (see Dong et al, supra, and Dong Z, et al. “Organ-specific modulation of steady-state mdr gene expression and drug resistance in murine colon cancer cells” J. Natl. Cancer Inst 1994;86(12):913-20, both references fully incorporated herein by this reference).
# LNCaP (p53, wt) = experiment: MTT cytotoxicity assay, LNCaP; format: cell-based; conditions: Homo sapiens, 96 hr
# Description: as §1
# DU145 (p53, mt) = experiment: MTT cytotoxicity assay, DU145; format: cell-based; conditions: Homo sapiens, DU-145, 96 hr
# Description: as §1
# MCF-7 (p53, wt) = experiment: MTT cytotoxicity assay, MCF-7; format: cell-based; conditions: Homo sapiens, MCF7
# Description: as §1
# (§2) In addition, the present inventors discovered that the compounds could also effectively kill human breast (MCF-7 and MDA435) and melanoma (A375) cells, as well as several lines of mouse tumor cells, with similar potencies (Table 1). Moreover, DL-001 could effectively kill endothelial cells derived from mouse lung and prostate (Table 1). Furthermore, it appears that tumor cells (LNCaP, MCF-7, and A375) that harbor the wildtype p53 tumor suppressor gene were relatively more sensitive to DL-001 (Table 1).
# MDA435 (p53, mt) = experiment: MTT cytotoxicity assay, MDA435; format: cell-based; conditions: Homo sapiens
# Description: as §1, §2
# A375 (p53, wt) = experiment: MTT cytotoxicity assay, A375; format: cell-based; conditions: Homo sapiens, A-375
# Description: as §1, §2
# TRAMP (prostate) = experiment: MTT cytotoxicity assay, TRAMP; format: cell-based; conditions: mouse cells
# Description: as §1, §2
# 4T1 (breast) = experiment: MTT cytotoxicity assay, 4T1; format: cell-based; conditions: mouse cells
# Description: as §1, §2
# B16 (melanoma) = experiment: MTT cytotoxicity assay, B16; format: cell-based; conditions: mouse cells
# Description: as §1, §2
# UV2237 (fibrosarcoma) = experiment: MTT cytotoxicity assay, UV2237; format: cell-based; conditions: mouse cells
# Description: as §1, §2
# CT-26 (colon) = experiment: MTT cytotoxicity assay, CT-26; format: cell-based; conditions: CT26, mouse cells, parental
# Description: as §1, §2
# CT-26 (colon, MDR) = experiment: MTT cytotoxicity assay, CT-26 MDR; format: cell-based; conditions: Mus musculus, CT26, multidrug resistant
# Description: as §1, §2
# [1] = test system: mouse endothelial cells, lung; experiment: MTT cytotoxicity assay, lung endothelial cells; format: cell-based; conditions: Endothelial cell
# Description: as §1, §2
# [2] = test system: mouse endothelial cells, prostate; experiment: MTT cytotoxicity assay, prostate endothelial cells; format: cell-based; conditions: Endothelial cell
# Description: as §1, §2
# caspase 2 = experiment: Fluorometric caspase assay in PC-3MM2 cells, caspase 2; format: cell-based, human; conditions: 50 nM, 24 hr
# Description: (§3) Taxol is known to kill tumor cells by inducing arrest of cells at […] cell cycle and apoptosis. To identify mechanisms by which DL-001 killed tumor cells, we compared effects of DL-001 and Taxol on PC-3MM2 cells. […] To verify the role of DL-001 in inducing apoptosis, the activity of caspase 2,3,6,8 and 9 was analyzed. PC-3MM2 cells are treated with 50 nM of DL-001, taxol, or vincristine for 24 hr. Caspase activities in the treated cells are assessed by using a fluorometric caspase assay kit (Bio Vision, Mountain View, Calif.).
# caspase 3 = experiment: Fluorometric caspase assay in PC-3MM2 cells, caspase 3; format: cell-based, human; conditions: 50 nM, 24 hr
# Description: as §3
# caspase 6 = experiment: Fluorometric caspase assay in PC-3MM2 cells, caspase 6; format: cell-based, human; conditions: 50 nM, 24 hr
# Description: as §3
# caspase 8 = experiment: Fluorometric caspase assay in PC-3MM2 cells, caspase 8; format: cell-based, human; conditions: 50 nM, 24 hr
# Description: as §3
# caspase 9 = experiment: Fluorometric caspase assay in PC-3MM2 cells, caspase 9; format: cell-based, human; conditions: 50 nM, 24 hr
# Description: as §3
# PC-3MM2 tumors = experiment: Orthotopic model of PC-3 human prostate cancer cells in nude mice; format: in vivo; conditions: for toxic side effects on mice: based on body weight and H & E-stained sections of heart, lung, liver, kidney, spleen
# Description: PC-3MM2 cells are implanted into the prostate of nude mice. The therapy begins 3 days later, when tumors are established, by daily intraperitoneal injection of DL-001 at 10 mg/kg or 20 mg/kg of body weight or of DMSO (solvent). Experiments are terminated 3 weeks later.
# PC-3MM2 cells = experiment: Cell cycle and apoptosis in PC-3MM2 cells; format: cell-based, human
# Description: as §3
SMILES,"IC50 (PC-3 (p53, del))","IC50 (DU145 (p53, mt))",IC50 (CT-26 (colon)),"IC50 (CT-26 (colon, MDR))","Fold change of caspase activity compared with that in control cells, caspase 2 (caspase 2)","Fold change of caspase activity compared with that in control cells, caspase 3 (caspase 3)","Fold change of caspase activity compared with that in control cells, caspase 6 (caspase 6)","Fold change of caspase activity compared with that in control cells, caspase 8 (caspase 8)","Fold change of caspase activity compared with that in control cells, caspase 9 (caspase 9)",toxic side effects on mice (PC-3MM2 tumors),effect on cell cycle and apoptosis (PC-3MM2 cells),further results
"COc1ccc(C(=O)c2cc([N+](=O)O)ccc2N2CCCCC2)cc1 (racemic) [DL-001, (4-Methoxy-phenyl)-(5-nitro-2-piperidin-1-yl-phenyl)-methanone]",32 nM,28 nM,39 nM,39 nM,17* fold,22 fold,1 fold,1 fold,4 fold,did not produce significant toxic side effects,arrested at S/G2 checkpoint of cell cycle and went into apoptosis,"IC50 (LNCaP (p53, wt)): 11 nM; IC50 (MCF-7 (p53, wt)): 17 nM; IC50 (MDA435 (p53, mt)): 30 nM; IC50 (A375 (p53, wt)): 23 nM; IC50 (TRAMP (prostate)): 41 nM; IC50 (4T1 (breast)): 30 nM; IC50 (B16 (melanoma)): 26 nM; IC50 (UV2237 (fibrosarcoma)): 35 nM; IC50 [1]: 45 nM; IC50 [2]: 51 nM; growth of PC-3MM2 tumors in the prostate of nude mice (PC-3MM2 tumors; daily intraperitoneal injection, 10 mg/kg or 20 mg/kg (DL-001), from day 3, terminated 3 weeks later): inhibited growth of PC-3MM2 tumors in dose-dependent manner"
"COc1ccc(C(=O)c2cc([N+](=O)O)ccc2N2CCOCC2)cc1 (racemic) [DL-002, (4-Methoxy-phenyl)-(2-morpholin-4-yl-5-nitro-phenyl)-methanone]",30 nM,30 nM,–,–,–,–,–,–,–,did not produce significant toxic side effects,–,–
CC(=O)O[C@H]1C(=O)[C@@]2(C)[C@H]([C@H](OC(=O)c3ccccc3)[C@]3(O)C[C@H](OC(=O)[C@H](O)[C@@H](NC(=O)c4ccccc4)c4ccccc4)C(C)=C1C3(C)C)[C@]1(OC(C)=O)CO[C@@H]1C[C@@H]2O [Taxol],4 nM,3 nM,73 nM,367 nM,26 fold,34 fold,1 fold,1 fold,7 fold,–,arrested at S/G2 checkpoint of cell cycle and went into apoptosis,–
"CC[C@]1(O)C[C@H]2CN(CCc3c([nH]c4ccccc34)[C@@](C(=O)OC)(c3cc4c(cc3OC)N(C=O)[C@H]3[C@@](O)(C(=O)OC)[C@H](OC(C)=O)[C@]5(CC)C=CCN6CC[C@]43[C@@H]65)C2)C1 [Vincristine, vincristine]",4 nM,5 nM,16 nM,38 nM,18 fold,24 fold,1 fold,1 fold,4 fold,–,–,–
